The values below come from patent US20220402973A1, “POLYPEPTIDE FRAGMENT C (MP-C) AND USE THEREOF” (SHANGHAI LONGXIN BIOMEDICAL TECHNOLOGY CO., LTD., priority 2021, published 2022).

What all share (assay type): in vivo, mice (male C57BL6)
The test system of assay [1] is DSS-induced IBD in mice. The assay is described as follows: DAI scoring in DSS-induced acute IBD mouse model. The note with it: DSS 2.5 wt % induced IBD mice, 50 μg/kg intragastric daily; for DAI (disease activity index) score: 7 days pre-administration then with DSS, end of experiment, mean±SD, model group 3.7±0.6, blank 0.0±0.0; for body weight of mice (effect of intervention): versus model group. On the procedure:
(§1) The administration of a DSS solution with a specified concentration to mice can induce an acute IBD model characterized by diarrhea, hematochezia, ulcer, and granulocyte infiltration. Mice were randomly grouped according to body weights of the mice. 40 healthy male C57BL6 mice were divided into four groups each with 10 mice:
blank control group: the mice were each intragastrically administered with water every day at a volume of 0.4 mL/20 g;
model group: the mice were each intragastrically administered with a DSS aqueous solution of a mass fraction of 2.5 wt % consecutively for 7 days, where the DSS aqueous solution was freshly prepared and changed every day;
MIMP positive control group: the mice were each given a pre-administration process for one week, that is, the mice were each intragastrically administered with an MIMP solution of a mass fraction of 50 μg/kg for the first 7 days, and then from day 8, the mice were each intragastrically administered with a DSS aqueous solution of a mass fraction of 2.5 wt % (at a volume of 0.4 mL/20 g) and an MIMP solution of a mass fraction of 50 μg/kg (at a volume of 0.4 mL/20 g) every day; and
MP-C experimental group: the mice were each given a pre-administration process for one week, that is, the mice were each intragastrically administered with an MP-C solution of a mass fraction of 50 μg/kg for the first 7 days, and from day 8, the mice were each intragastrically administered with a DSS aqueous solution of a mass fraction of 2.5 wt % (at a volume of 0.4 mL/20 g) and an MP-C solution of a mass fraction of 50 μg/kg (at a volume of 0.4 mL/20 g) every day.
The body weight changes of mice in each group were recorded every day to determine whether the acute IBD mouse model was successfully established.
(§2) After DSS induction, the body weight changes, activities, and feces viscosity of the mice in each group were recorded every day. […] A mouse colon between an anus end to an ileocecal end was integrally collected, and a length of the colon was measured; and the colon was dissected along a longitudinal axis, feces therein was rinsed off, and then the colon was stored in 4% […] or frozen at −80° C.
Experimental data in the above experimental method were expressed as (x±SD), the GraphPad Prism (ver. 8.0, GraphPad Software Inc., San Diego, Calif., USA) was used to plot a chart, the SPSS Program (ver. 25.0, SPSS Inc., Chicago, Ill., USA) was used for statistical test, and one-way ANOVA or independent two-sample t-test were used for significance test when the normality and homogeneity of variances were met. It was assumed that α=0.05, and P<0.05 indicates a statistically significant difference.

Assay [2] has as its system DSS-induced IBD in mice. Description: Colon length in DSS-induced acute IBD mouse model. The note with it: DSS 2.5 wt % induced IBD mice; 50 μg/kg intragastric daily; mean±SD; model group 6.4±0.5, blank 9.5±0.5; in cm (unit assumed). On the procedure: (§3) The administration of a DSS solution with a specified concentration to mice can induce an acute IBD model characterized by diarrhea, hematochezia, ulcer, and granulocyte infiltration. Mice were randomly grouped according to body weights of the mice. 40 healthy male C57BL6 mice were divided into four groups each with 10 mice: […]
as §2
(§4) Experimental data in the above experimental method were expressed as (x±SD), the GraphPad Prism (ver. 8.0, GraphPad Software Inc., San Diego, Calif., USA) was used to plot a chart, the SPSS Program (ver. 25.0, SPSS Inc., Chicago, Ill., USA) was used for statistical test, and one-way ANOVA or independent two-sample t-test were used for significance test when the normality and homogeneity of variances were met. […]

Assay [3] deals with DSS-induced IBD in mice. The assay is described as follows: Colonic histopathological evaluation (HE staining) in DSS-induced IBD mice. The settings on record: DSS 2.5 wt % induced IBD mice, 50 μg/kg intragastric daily, mean±SD, model group 5.6±0.7, blank 0.0±0.0.
Text: as §1
MIMP positive control group: the mice were each given a pre-administration process for one week, that is, the mice were each intragastrically administered with an MIMP solution of a mass fraction of 50 μg/kg for the first 7 days, and then from day 8, the mice were each intragastrically administered with a DSS aqueous solution of a mass fraction of 2.5 wt % (at a volume of 0.4 mL/20 g) and an MIMP solution of a mass fraction of 50 μg/kg (at a volume of 0.4 mL/20 g) every day; and […]
as §4

The test system of assay [4] is IFN-γ. Description: ELISA of colonic IFN-γ expression in DSS-induced IBD mice. The note with it: DSS 2.5 wt % induced IBD mice; 50 μg/kg intragastric daily; colon homogenate ELISA; mean±SD; model group 1223.1±41.5, blank 889.2±74.6. The procedure:
as §3
The colon sample frozen at −80° C. in step 1.2 was placed in an EP tube, PBS and magnetic beads were added, and then the colon sample was subjected to ultrasonic homogenization in a tissue grinder; and a resulting homogenate was centrifuged, and a resulting supernatant was collected. […] Appropriate primary and secondary antibodies were used according to the instructions, an o-phenylenediamine (OPD) chromogenic solution was used for color development, and after the reaction was terminated, reading was conducted on a microplate reader at a wavelength of 490 nm, with three replicate wells for each sample.
as §4

For the molecule “THTVGSYFVVQNGYVGAFSYALGNSEYAMSSPLGSLDGRTTRYNLL (THTVGSYFXVQNGYVGAFSXALGNSEYAMXSPLGSLDGRTTXYNLL; Sequence is synthesized; (9)..(9) Xaa can be Tyr, Val, Gly, Ser, or Gln; (20)..(20) Xaa can be Ser, Gln, Glu, or Tyr; (30)..(30) Xaa can be Asn, Thr, Ser, Pro, or Leu; (42)..(42) Xaa can be Gly, Arg, Met, or absent) [MP-C]”, in assay [1], the “DAI (disease activity index) score” value is on record as 2.0±0.3 and the “body weight of mice (effect of intervention)” value is reported as “prevented the significant decrease in body weight”. In assay [2], the colon length is 9.2±0.2. The same molecule gave a colonic histopathologic score in assay [3] of 1.2±0.2. In assay [4], the “expression level of IFN-γ in colon” value turned out to be 1068.4±61.2.

B1: THTVGSYFSVQNGYVGAFSQALGNSEYAMNSPLGSLDGRTTMYNLLGVKYLFAREDQLKKQ (peptide, listed as Lactobacillus plantarum)
chain: THTVGSYFSVQNGYVGAFSQALGNSEYAMNSPLGSLDGRTTMYNLLGVKYLFAREDQLKKQ
notes: positive control
B1: in assay [1], the “DAI (disease activity index) score” value is 2.7±0.7 and the “body weight of mice (effect of intervention)” value is “prevented the significant decrease in body weight”. Besides, in assay [2], the colon length came out at 9.5±0.3. Further, the colonic histopathologic score in assay [3] is 1.4±0.7. Besides, the “expression level of IFN-γ in colon” value in assay [4] came out at 1011.4±79.5.
